Laboratory results as given in US5849888A, “Azoamide compound” (Wako Pure Chemical Industries, Ltd., priority 1996, dated 1998).

Experiments:
[1] = Half-life test (thermal decomposition in ethyl benzene, 10-hour half life temperature); assay type: physicochemical; conditions: 1% (w/w) solution in ethyl benzene; calculated by Arrhenius equation
Description: Experiment 1. Half-life test
(§1) 1 Percent (w/w) solution of each azoamide compound obtained in Examples 1 to 7 in ethyl benzene is prepared. A concentration of the azoamide compound is measured in a thermostat at pre-determined interval by 1 hour unit and a coefficient of decomposition rate constant at each temperature is obtained and then the temperature for 10 -hour half life is calculated on the basis of the coefficient by Arrhenius equation.

[2] = Solubility of azoamide compound in 100 g of solvent at 25° C. (Table 1); assay type: physicochemical; conditions: for Solubility in ethyl acetate: in 100 g of ethyl acetate; for Solubility in toluene: in 100 g of toluene
Description: *^) Solubility of each azoamide compound in 100 g of the solvent at
A polymerization initiator having solubility of generally 2% or more, preferably 5% or more has high applicability, and it can be found from the above Table 1 that any of the azoamide compounds of the present invention is suitable for a polymerization reaction using an organic solvent.

[3] = in words, cited from earlier work; for solubility in an organic solvent: organic solvent used in solution polymerization of an oily soluble monomer
[4] = Polymerization of styrene at 110° C. with azoamide initiator (Experiment 2); conditions: 4×10^-4 M initiator
Description: (§2) 5 ml of styrene containing a 4×10^-4 M of azoamide compound which is obtained example 1, 3, or 6 were placed in individual glass tubes. After deairing, the tubes were sealed under reduced pressure. Each tube was placed into the thermostat adjusted at 110° C. to carry out the polymerization. The tube was took out from the thermostat after predetermined time, cooled under ice water immediately to stop polymerization. The reaction solution was poured into methanol to deposit and precipitate the obtained polymer. The precipitate was recovered by filtration, and dried at 60° C. under reduced pressure for 8 hours. The weight of the polymer obtained was measured and the conversion was calculated.

[5] = Decomposition rate constant at 110° C. (Table 3); assay type: physicochemical
Description: as §1, §2

[6] = listed as 2,2'-azobis (N-methyl-2-methyl propionamide)

Row | SMILES | temperature for 10-hour half life [1] [°C] | Solubility in ethyl acetate [2] | Solubility in toluene [2] | decomposition rate constant [5] [s⁻¹] | Solubility in ethyl acetate [2, 6] | Solubility in toluene [2, 6] | solubility in water [3] | solubility in an organic solvent [3] | Conversion ([4]; polymerization time 1 h) [%] | Conversion ([4]; polymerization time 2 h) [%] | Conversion ([4]; polymerization time 3 h) [%] | Conversion ([4]; polymerization time 4 h) [%] | Conversion ([4]; polymerization time 6 h) [%] | Conversion ([4]; polymerization time 8 h) [%]
1 | CC(C)(N=NC(C)(C)C(=O)NCO)C(=O)NCO [2,2'-azobis [2-methyl-N-(hydroxymethyl)-propionamide]] | – | – | – | – | – | – | water-soluble | poor soluble | – | – | – | – | – | –
2 | CC(C)CNC(=O)C(C)(C)N=NC(C)(C)C(=O)NCC(C)C [Example 2, 2,2'-azobis [N-(2-methylpropyl)-2-methylpropionamide]] | 112.0 | 14.0 g | 8.0 g | – | – | – | – | – | – | – | – | – | – | –
3 | CC(C)(N=NC(C)(C)C(N)=O)C(N)=O [2,2'-azobis (2-methylpropionamide)] | – | – | – | – | – | – | water-soluble | poor soluble | – | – | – | – | – | –
4 | CCCCNC(=O)C(C)(C)N=NC(C)(C)C(=O)NCCCC [Example 3, 2,2'-azobis (N-butyl-2-methyl propionamide)] | 110.6 | easily soluble | easily soluble | 1.79e-05 | – | – | – | – | 9.2 | 20.8 | 30.8 | 41.0 | 61.2 | 82.9
5 | CC(C)(N=NC(C)(C)C(=O)NC1CCCCC1)C(=O)NC1CCCCC1 [Example 1, 2,2'-azobis (N-cyclohexyl-2-methyl propionamide)] | 111.0 | 3.5 g | 5.5 g | 1.72e-05 | – | – | – | – | 8.7 | 20.5 | 30.8 | 41.2 | 62.5 | 81.0
6 | CNC(=O)C(C)(C)N=NC(C)(C)C(=O)NC [Comparative example, 2,2'-azobis (N-methyl-2-methyl propionamide), reference compound] | – | 1.2 g | ≤ 0.5 g | – | low solubility | low solubility | water-soluble | poor soluble | – | – | – | – | – | –

More lines, main results first:

Row | temperature for 10-hour half life [1] [°C] | Solubility in ethyl acetate [2] | Solubility in toluene [2] | decomposition rate constant [5] [s⁻¹] | Solubility in ethyl acetate [2, 6] | Solubility in toluene [2, 6] | SMILES | solubility in water [3] | solubility in an organic solvent [3] | Conversion ([4]; polymerization time 1 h) [%] | Conversion ([4]; polymerization time 2 h) [%] | Conversion ([4]; polymerization time 3 h) [%] | Conversion ([4]; polymerization time 4 h) [%] | Conversion ([4]; polymerization time 6 h) [%] | Conversion ([4]; polymerization time 8 h) [%]
7 | 111.2 | 11.0 g | 5.0 g | – | – | – | CC(C)NC(=O)C(C)(C)N=NC(C)(C)C(=O)NC(C)C [Example 4, 2,2'-azobis [N-(2-methylethyl)-2-methylpropionamide]] | – | – | – | – | – | – | – | –
8 | 111.6 | easily soluble | easily soluble | – | – | – | CCCCCCNC(=O)C(C)(C)N=NC(C)(C)C(=O)NCCCCCC [Example 5, 2,2'-azobis (N-hexyl-2-methyl propionamide)] | – | – | – | – | – | – | – | –
9 | 110.8 | easily soluble | easily soluble | 1.74e-05 | – | – | CCCNC(=O)C(C)(C)N=NC(C)(C)C(=O)NCCC [Example 6, 2,2'-azobis (N-propyl-2-methyl propionamide)] | – | – | 9.0 | 20.0 | 31.2 | 41.0 | 62.4 | 83.6
10 | 109.6 | 11.0 g | 4.0 g | – | – | – | CCNC(=O)C(C)(C)N=NC(C)(C)C(=O)NCC [Example 7, 2,2'-azobis (N-ethyl-2-methyl propionamide)] | – | – | – | – | – | – | – | –
